Laboratory results taken from patent US20220348910A1, “METHODS AND COMPOSITIONS FOR MULTIPLEX GENE EDITING” (THE GOVERNING COUNCIL OF THE UNIVERSITY OF TORONTO, priority 2019, published 2022).

Test system: HPRT1
Assay: Pooled positive selection hgRNA screen for resistance to 6-thioguanine
Format: cell-based, human
Conditions: 6-TG treated cells
Procedure: Lentiviral-based positive selection pooled hgRNA screens were performed, and the human HPRT1 and TK1 genes were targeted using guide pairs that either target within exonic regions, which are expected to result in gene knockout, or intronic loci flanking constitutive exons in these genes, which are expected to result in exon deletion (FIG. 1D). All of the exon-flanking hgRNAs in the library were designed to introduce double-strand DNA breaks at intronic sites that are at least 100 bps distal from splice sites flanking the target exons.
At T18 15 million cells were collected for genomic DNA extraction, and hgRNA expression cassettes were amplified and subjected to high-throughput sequencing as described below.

Nc1nc2nc[nH]c2c(=S)[nH]1 [6-TG, 6-thioguanine]
library constructs undetectable when cells were treated with 6-TG: 95.8%
